In patent US10711002B2, “Purine compounds and method for the treatment of cancer” (THE ROYAL INSTITUTION FOR THE ADVANCEMENT OF …, priority 2016, dated 2020):

What was measured:
[1] = tested on: MDA-231/M (human triple-negative breast cancer); assay: In vivo distant metastasis and primary tumor growth, orthotopic transplant; conditions: MDA-231/M in SCID mice, PO
From the text: (§1) In vivo studies were approved by McGill Animal Care Committee. Cells growing in exponential phase of growth (1×10^6 cells/mouse) were transplanted into the mammary fat pad of female SCID (MDA231/M) or Balb/c (4T1) mice. Mia-PaCa cells and RENCA cells were implanted subcutaneously in SCID or Balb/c mice respectively. When primary tumors became palpable mice were randomized and blindly assigned treatment groups. Treatment was given PO for 4 cycles (3 times a week: day 1, day 3, day 5) (n=8-10 mice per condition). Control mice received the vehicle alone (1% DMSO in physiologic solution). […] Tumor size was measured using a caliper. At the study termination (60-90 days) primary tumors were excised and weighted. The lungs were fixed in 10% Bouin's fixative and lung surface metastases were counted using a stereomicroscope.

[2] = tested on: 4T1/M (triple-negative breast cancer); assay: as above; conditions: 4T1/M in Balb/c mice, PO
From the text: as §1

[3] = tested on: Mia-PaCa (human pancreatic carcinoma); assay: In vivo primary tumor growth, subcutaneous implant; set-up: species or system SCID mice
From the text: as §1

PMC42-LA cells = assay: Organoid differentiation on matrigel; format: cell-based
Experimental: Cancer cell lines: MDA-MB-231, BT-20, Panc-1, OVCAR-3, 4T1 and RENCA were obtained from ATCC. Epithelial breast adenocarcinoma cell line PMC42-LA, were kindly provided by Dr. Ackland. Mia-Paca cells were kindly provided by Dr. George Zogopoulos. All cancer cell lines were cultured in RPMI1640× with 10% fetal bovine serum with 1% penicillin/streptomycin, and maintained at 37° C. in 5% atmosphere of CO2. In the case of growth factor stimulation, cells were serum starved for no longer than 12H, and then stimulated with 20 ng/ml EGF for 40 minutes.
In order to confirm that the reduction of CSC markers by Compound 1 correlates with loss of stem-cell properties, the effect of Compound 1 was investigated on the differentiation capability of a well-established PMC42-LA breast cell line. PMC42-LA cells treated with the appropriate concentrations of Compound 1 were also plated on Compound 1 containing matrigel and allowed to form organoids. Since the defining characteristic of stem cells is pluripotency—the capacity of a cell to differentiate into varying progenies, then Compound 1 may inhibit the differentiation process in those PMC42-LA cells. In the absence of drug treatment, PMC42-LA cells undergo differentiation into secretory organoids when cultured on matrigel.

Structure (SMILES) | Primary tumor weight ([1]; at study termination) [g] | Inhibition of distant metastasis (% control) ([1]; lung surface metastases) | Primary tumor weight ([2]; at study termination) [g] | Inhibition of distant metastasis (% control) ([2]; lung surface metastases) | Primary tumor weight ([3]; Mia-PaCa subcutaneous in SCID mice, PO, at study termination) [g] | pancreatic cancer cell (Mia-PaCa) growth in vivo ([3]; mouse, in vivo) | differentiation and expansion of colonies into larger organoid structures (PMC42-LA cells) | number of overall colonies (PMC42-LA cells)
O=c1c2ccccc2[se]n1-c1nc(N[C@H]2CC[Se]C2)c2nc[nH]c2n1 [Compound 4] | 0.2 ± 0.08 | 45-61% | 0.5 ± 0.10 | 75-82% | 0.6 ± 0.14 | able to inhibit |  | 
O=c1c2ccccc2[se]n1-c1nc(NC2CCCCC2)c2nc[nH]c2n1 [Compound 1] |  |  |  |  |  |  | visibly prevented the differentiation and expansion of these colonies into larger organoid structures | did not reduce the number of overall colonies
